This is an account of results in US10792373B2, “Drug delivery polymers and uses thereof” (priority 2016, dated 2020).

For one assay, the target named is T1, Top1 (Mus musculus, UniProt Q04750).
T1 construct: Eμ-Myc p19Arf−/− lymphoma cells were infected at about 30% with GFP-tagged shRNAs; endogenous in cells; host or cells: Eμ-Myc p19Arf-/- murine lymphoma cells
T1 sequence (Q04750 1-767): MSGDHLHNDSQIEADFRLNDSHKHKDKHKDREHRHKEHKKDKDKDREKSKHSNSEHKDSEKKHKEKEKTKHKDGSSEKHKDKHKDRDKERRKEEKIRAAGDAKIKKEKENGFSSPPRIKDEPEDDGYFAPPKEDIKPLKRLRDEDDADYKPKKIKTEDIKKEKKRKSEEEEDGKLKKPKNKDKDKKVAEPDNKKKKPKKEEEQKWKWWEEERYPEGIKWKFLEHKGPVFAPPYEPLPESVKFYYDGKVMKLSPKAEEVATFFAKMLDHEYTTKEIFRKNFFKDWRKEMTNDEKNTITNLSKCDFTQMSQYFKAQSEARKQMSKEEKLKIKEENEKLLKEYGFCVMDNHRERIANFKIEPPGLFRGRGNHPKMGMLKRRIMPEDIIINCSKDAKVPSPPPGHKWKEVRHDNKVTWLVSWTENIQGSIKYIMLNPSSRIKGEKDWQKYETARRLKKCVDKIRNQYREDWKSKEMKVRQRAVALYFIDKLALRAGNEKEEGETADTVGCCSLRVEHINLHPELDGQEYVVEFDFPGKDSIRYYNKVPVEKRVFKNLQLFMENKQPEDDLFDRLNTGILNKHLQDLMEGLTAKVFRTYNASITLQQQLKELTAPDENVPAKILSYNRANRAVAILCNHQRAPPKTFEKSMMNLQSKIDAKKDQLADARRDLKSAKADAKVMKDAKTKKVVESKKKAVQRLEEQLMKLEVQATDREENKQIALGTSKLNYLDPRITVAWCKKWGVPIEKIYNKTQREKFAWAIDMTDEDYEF
As to the kind of experiment: GFP competition assay with validated Top1 shRNA. Type of assay: cell-based, murine. As for the experimental part: (§1) Eμ-Myc p19Arf−/− lymphoma cells were infected at about 30% with GFP-tagged shRNAs. The cells were then treated with drug to kill 80-90% of cells as judged by propidium iodide exclusion via flow cytometry at 48 h. At 72 h GFP positivity was assessed via flow cytometry. Using the RNAi signature approach, the free drug, prodrug, single-drug-conjugated BASPs, and multi-drug conjugated BASPs illustrated in FIGS. 9A-9C were characterized. […] Next, the RNAi signatures for each of the free drugs and their corresponding prodrug monomers and BASPs were plotted (FIG. 20E) using principal component analysis (PCA). PCA is a means of representing the variance in a multi-dimensional dataset in fewer dimensions. […] Inside the cell, where the concentration of chloride ions is much lower than in the extracellular milieu (2 to 30 mM for the former compared to ˜100 mM for the latter), the weakly bound chloride ligands of free cisplatin are replaced with aquo ligands. This diaquo species induces cytotoxic inter- or intra-strand DNA cross-links.

A further assay deals with T2, Top2A (Mus musculus, UniProt Q01320).
T2 construct: Eμ-Myc p19Arf−/− lymphoma cells were infected at about 30% with GFP-tagged shRNAs; endogenous in cells; host or cells: Eμ-Myc p19Arf-/- murine lymphoma cells
T2 sequence (Q01320 whole entry): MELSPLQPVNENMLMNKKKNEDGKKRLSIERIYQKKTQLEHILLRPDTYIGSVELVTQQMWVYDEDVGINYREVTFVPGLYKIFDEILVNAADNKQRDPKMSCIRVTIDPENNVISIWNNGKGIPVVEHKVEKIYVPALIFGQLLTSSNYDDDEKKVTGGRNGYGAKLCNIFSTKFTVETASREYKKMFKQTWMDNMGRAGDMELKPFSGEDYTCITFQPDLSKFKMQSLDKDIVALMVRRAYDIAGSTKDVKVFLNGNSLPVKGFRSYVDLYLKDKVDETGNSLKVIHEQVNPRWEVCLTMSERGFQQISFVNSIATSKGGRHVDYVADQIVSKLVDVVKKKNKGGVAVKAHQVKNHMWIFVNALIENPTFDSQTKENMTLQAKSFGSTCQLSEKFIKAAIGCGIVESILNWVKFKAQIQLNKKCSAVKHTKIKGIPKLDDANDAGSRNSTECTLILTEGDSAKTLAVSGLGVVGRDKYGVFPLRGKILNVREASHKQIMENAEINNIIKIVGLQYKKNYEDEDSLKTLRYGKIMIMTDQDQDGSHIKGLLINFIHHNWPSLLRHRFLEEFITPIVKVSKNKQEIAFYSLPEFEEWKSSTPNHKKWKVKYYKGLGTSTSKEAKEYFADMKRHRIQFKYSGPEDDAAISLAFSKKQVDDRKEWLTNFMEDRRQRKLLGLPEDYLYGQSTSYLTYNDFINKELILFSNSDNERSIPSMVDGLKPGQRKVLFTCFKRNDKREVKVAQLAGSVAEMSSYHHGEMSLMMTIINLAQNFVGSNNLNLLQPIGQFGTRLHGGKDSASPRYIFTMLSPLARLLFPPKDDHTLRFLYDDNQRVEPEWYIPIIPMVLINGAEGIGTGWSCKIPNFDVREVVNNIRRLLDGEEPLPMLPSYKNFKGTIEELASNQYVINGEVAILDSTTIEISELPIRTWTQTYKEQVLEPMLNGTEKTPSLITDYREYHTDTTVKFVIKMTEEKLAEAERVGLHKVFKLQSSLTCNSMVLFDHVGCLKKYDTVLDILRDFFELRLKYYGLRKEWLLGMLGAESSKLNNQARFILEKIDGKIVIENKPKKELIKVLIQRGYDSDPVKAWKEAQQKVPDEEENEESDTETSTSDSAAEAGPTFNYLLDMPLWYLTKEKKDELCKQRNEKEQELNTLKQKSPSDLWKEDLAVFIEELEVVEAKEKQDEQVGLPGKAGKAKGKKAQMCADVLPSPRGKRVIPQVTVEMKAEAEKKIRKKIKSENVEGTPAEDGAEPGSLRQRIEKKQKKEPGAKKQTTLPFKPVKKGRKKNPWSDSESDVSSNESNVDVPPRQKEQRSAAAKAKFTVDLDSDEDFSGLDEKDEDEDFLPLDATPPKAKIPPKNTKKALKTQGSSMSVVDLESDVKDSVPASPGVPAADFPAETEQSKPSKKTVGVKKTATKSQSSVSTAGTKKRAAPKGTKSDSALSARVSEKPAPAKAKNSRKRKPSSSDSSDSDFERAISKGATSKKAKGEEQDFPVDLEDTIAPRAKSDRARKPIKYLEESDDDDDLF
As to the kind of experiment: GFP competition assay with validated Top2A shRNA. In kind it is cell-based, murine. On the procedure:
as §1

Assay [1] concerns Eμ-Myc p19Arf−/− lymphoma cells. As to the kind of experiment: RNAi signature assay (GFP-tagged shRNAs, flow cytometry). The conditions noted are these: drug dosed to kill 80-90% of cells at 48 h; GFP positivity at 72 h. In kind it is cell-based, murine. On the procedure: RNAi signatures were performed as described previously^2-4. Briefly, Eμ-Myc p19^Arf−/− lymphoma cells were infected at about 30% with GFP-tagged shRNAs. The cells were then treated with drug to kill 80-90% of cells as judged by propidium iodide exclusion via flow cytometry at 48 h. At 72 h, GFP positivity was assessed via flow cytometry. Constrained linear regression was performed in Stata using least-squares fit with individual drug treatments as the predictor variables and the combination signatures as the response variables. The linear regression was constrained such that the sum of the predictor variables had to equal one and none could be negative.
(§2) Eμ-Myc p19Arf−/− lymphoma cells were infected at about 30% with GFP-tagged shRNAs. The cells were then treated with drug to kill 80-90% of cells as judged by propidium iodide exclusion via flow cytometry at 48 h. At 72 h GFP positivity was assessed via flow cytometry. Using the RNAi signature approach, the free drug, prodrug, single-drug-conjugated BASPs, and multi-drug conjugated BASPs illustrated in FIGS. 9A-9C were characterized. […] Next, the RNAi signatures for each of the free drugs and their corresponding prodrug monomers and BASPs were plotted (FIG. 20E) using principal component analysis (PCA). PCA is a means of representing the variance in a multi-dimensional dataset in fewer dimensions. […] One hypothesis that may explain the observed difference between the cisplatin and oxaliplatin prodrug mechanisms is related to the ligand lability of these species. Inside the cell, where the concentration of chloride ions is much lower than in the extracellular milieu (2 to 30 mM for the former compared to ˜100 mM for the latter), the weakly bound chloride ligands of free cisplatin are replaced with aquo ligands. This diaquo species induces cytotoxic inter- or intra-strand DNA cross-links. […] Additionally, utilizing a CisPt-DNA adduct specific antibody, the genomic DNA isolated from murine lymphoma cells after 8 h of drug treatment was analyzed. […]

Assay [2] concerns genomic DNA isolated from murine lymphoma cells. As to the kind of experiment: Cisplatin-DNA adduct detection with a CisPt-DNA adduct specific antibody. In kind it is cell-based. The conditions noted are these: after 8 h of drug treatment. As for the experimental part: as §2

Regarding `CC[C@@]1(O)C(=O)OCc2c1cc1n(c2=O)Cc2cc3ccccc3nc2-1` [CPT, camptothecin], the “response of cells with knockdown of Top1” value on Top1 is “resistance”. In addition, the “response of cells harboring the Top2A shRNA” value on Top2A is “sensitivity”. In addition, in assay [1], the “RNAi signature classification (mechanism of action)” value is listed as “Topoisomerase I (Top1) poisons”.
Taken in the same sequence, the figures for `COc1cccc2c1C(=O)c1c(O)c3c(c(O)c1C2=O)C[C@@](O)(C(=O)CO)C[C@@H]3O[C@H]1C[C@H](N)[C@H](O)[C@H](C)O1` [DOX, doxorubicin] were “sensitivity”, “resistant” and “Topoisomerase II (Top2) poison”.
In the case of `O=C1[O][Pt]2([NH][C@@H]3CCCC[C@H]3[NH]2)[O]C1=O` [OxPt, oxaliplatin], in assay [1], the “RNAi signature classification (mechanism of action)” value is listed as “transcription/translation inhibitors”.
As to `N.N.[Cl][Pt][Cl]` [CisPt, cisplatin], the Cisplatin-DNA adducts entry in assay [2] is “detected”.
